Measured values: PMC10522932, “A broad inhibitor of acyl-acyl carrier protein synthetases” (Biochemistry and Biophysics Reports, 2023)

Experiments:
Assay in all cases: urea-PAGE gel shift of acyl-ACP, densitometry
Assay type in all cases: biochemical
VhAasS [1] = target: T1, VhAasS (Vibrio harveyi, UniProt Q00IB3); details: read-out: % inhibition at 1 mM
T1 construct: gene aasS; His6-tagged, E. coli BL21[DE3], Ni-NTA purified; soluble enzyme
T1 sequence (Q00IB3 1-533): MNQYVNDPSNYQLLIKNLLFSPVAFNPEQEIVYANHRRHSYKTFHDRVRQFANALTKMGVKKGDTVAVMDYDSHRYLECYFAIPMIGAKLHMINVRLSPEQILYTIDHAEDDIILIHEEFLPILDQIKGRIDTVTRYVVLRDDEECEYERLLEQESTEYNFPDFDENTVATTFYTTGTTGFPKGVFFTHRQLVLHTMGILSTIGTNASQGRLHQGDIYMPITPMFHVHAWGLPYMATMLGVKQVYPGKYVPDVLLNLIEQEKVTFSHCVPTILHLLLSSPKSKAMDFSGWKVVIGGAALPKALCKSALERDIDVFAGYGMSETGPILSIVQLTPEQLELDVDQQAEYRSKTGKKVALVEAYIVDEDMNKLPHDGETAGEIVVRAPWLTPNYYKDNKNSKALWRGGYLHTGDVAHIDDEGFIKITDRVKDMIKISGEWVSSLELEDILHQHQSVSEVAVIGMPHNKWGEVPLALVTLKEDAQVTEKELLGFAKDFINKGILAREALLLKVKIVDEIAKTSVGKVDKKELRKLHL

AasC [2] = target: T2, AasC (Chlamydia trachomatis, UniProt O84781); details: read-out: % inhibition at 1 mM
T2 construct: gene aas; His6-tagged (pET16b or pET29a, synthetic gene), E. coli BL21[DE3], Ni-NTA purified
T2 sequence (O84781 1-537): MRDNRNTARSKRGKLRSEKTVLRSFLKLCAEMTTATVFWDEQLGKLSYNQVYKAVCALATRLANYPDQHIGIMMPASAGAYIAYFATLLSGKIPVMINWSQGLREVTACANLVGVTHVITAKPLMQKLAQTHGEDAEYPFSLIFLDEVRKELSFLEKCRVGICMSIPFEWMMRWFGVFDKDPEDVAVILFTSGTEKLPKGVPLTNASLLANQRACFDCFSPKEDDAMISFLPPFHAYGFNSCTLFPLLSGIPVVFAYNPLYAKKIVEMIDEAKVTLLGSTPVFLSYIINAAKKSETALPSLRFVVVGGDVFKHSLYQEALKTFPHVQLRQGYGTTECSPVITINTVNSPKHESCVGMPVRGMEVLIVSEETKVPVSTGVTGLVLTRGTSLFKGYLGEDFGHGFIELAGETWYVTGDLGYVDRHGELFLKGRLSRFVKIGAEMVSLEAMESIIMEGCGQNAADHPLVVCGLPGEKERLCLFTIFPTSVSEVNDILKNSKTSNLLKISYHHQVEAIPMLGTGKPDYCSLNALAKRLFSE

VhAasS [3] = target: T1, VhAasS; details: holo-EcACP 30 uM, decanoic acid 1 mM, ATP 10 mM, MgCl2 12.5 mM, TCEP 2.5 mM, enzyme 2 uM, pH 7.5, 37 C, 24 h
AasC [4] = target: T2, AasC; details: holo-EcACP 30 uM, decanoic acid 1 mM, ATP 10 mM, MgCl2 12.5 mM, TCEP 2.5 mM, enzyme 50 uM, pH 7.5, 37 C, 24 h

SMILES | inhibition at 1000 µM (VhAasS [1]) | inhibition at 1000 µM (AasC [2]) | urea-PAGE gel shift of acyl-ACP, densitometry (VhAasS [3]) | urea-PAGE gel shift of acyl-ACP, densitometry (AasC [4])
CCCCCCCCCC(=O)NS(=O)(=O)OC[C@H]1O[C@@H](n2cnc3c(N)ncnc32)[C@H](O)[C@@H]1O [C10-AMS] | 100% | 100% |  | 
CCCCCCCCCC(=O)O [decanoic acid] |  |  | All AasS enzymes tested were able to load C10 onto EcACP | All AasS enzymes tested were able to load C10 onto EcACP
